From PubChem BioAssay (NCI)
Several values for one entry are separate records, joined by “and”; a condition that tells them apart may be missing. Equal entries are not always repeated.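 Method: 48-hour compound exposure of cells in 96-well plates, five concentrations, linear interpolation of endpoints. At the GI50, growth is halved. TGI: concentration producing complete growth inhibition.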

Assays:
Experiment in all cases: growth of human tumour cells (NCI), 48 h
[1] = tested on: SN12C renal
[2] = tested on: KM12 colon
[3] = tested on: SNB-19 CNS
[4] = tested on: DMS 114 small cell lung
[5] = tested on: HOP-62 NSCLC
[6] = tested on: MDA-MB-231 breast
[7] = tested on: DMS 273 small cell lung
[8] = tested on: 786-0 renal
[9] = tested on: T-47D breast
[10] = tested on: EKVX NSCLC
[11] = tested on: DU-145 prostate
[12] = tested on: SK-OV-3 ovarian
[13] = tested on: NCI-H23 lung
[14] = tested on: UACC-62 melanoma
[15] = tested on: HS 578T breast
[16] = tested on: HL-60(TB) leukemia
[17] = tested on: HCC-2998 colon
[18] = tested on: COLO 205 colon
[19] = tested on: NCI-H522 lung
[20] = tested on: XF 498 CNS
[21] = tested on: HT29 colon
[22] = tested on: MCF7 breast
[23] = tested on: UACC-257 melanoma
[24] = tested on: SNB-78 CNS
[25] = tested on: HOP-18 NSCLC
[26] = tested on: OVCAR-5 ovarian
[27] = tested on: TK-10 renal
[28] = tested on: SR leukemia
[29] = tested on: HOP-92 NSCLC
[30] = tested on: MDA-N
[31] = tested on: CCRF-CEM leukemia
[32] = tested on: NCI-H460 lung
[33] = tested on: OVCAR-8 ovarian
[34] = tested on: RPMI-8226 leukemia
[35] = tested on: PC-3 prostate
[36] = tested on: SK-MEL-2 melanoma
[37] = tested on: M14 melanoma
[38] = tested on: MOLT-4 leukemia
[39] = tested on: SF-295 CNS
[40] = tested on: LOX IMVI melanoma
[41] = tested on: CAKI-1 renal
[42] = tested on: UO-31 renal
[43] = tested on: NCI/ADR-RES ovarian
[44] = tested on: SK-MEL-28 melanoma
[45] = tested on: M19-MEL melanoma
[46] = tested on: U251 CNS
[47] = tested on: OVCAR-4 ovarian
[48] = tested on: SNB-75 CNS
[49] = tested on: BT-549 breast
[50] = tested on: A498 renal
[51] = tested on: OVCAR-3 ovarian
[52] = tested on: K-562 leukemia
[53] = tested on: MALME-3M melanoma
[54] = tested on: SW-620 colon
[55] = tested on: SK-MEL-5 melanoma
[56] = tested on: HCT-15 colon
[57] = tested on: SF-539 CNS
[58] = tested on: SF-268 CNS
[59] = tested on: DLD-1 colon
[60] = tested on: ACHN renal
[61] = tested on: MDA-MB-435
[62] = tested on: RXF 393 renal
[63] = tested on: NCI-H226 lung
[64] = tested on: IGROV1 ovarian
[65] = tested on: LXFL 529 NSCLC
[66] = tested on: HCT-116 colon
[67] = tested on: A549 NSCLC
[68] = tested on: KM20L2 colon

In the case of `CC1OC(=O)C2CC3CCCCC3C(/C=C/C3CCCC(C)N3C)C12` (stereo not drawn), the TGI [1] is reported as > 100000 nM, the TGI [2] is reported as > 100000 nM and the TGI [3] is reported as > 100000 nM. The TGI [4] was > 100000 nM, the TGI [5] was > 100000 nM and the TGI [6] was > 100000 nM. The TGI [7] was > 100000 nM, the TGI [8] was > 100000 nM and the TGI [9] was > 100000 nM. For the same compound, the TGI [10] was > 100000 nM, the TGI [11] was > 100000 nM and the TGI [12] was > 100000 nM. The TGI [13] was > 100000 nM, the TGI [14] was > 100000 nM and the TGI [15] was > 100000 nM. The TGI [16] was > 100000 nM, the TGI [17] was > 100000 nM and the TGI [18] was > 100000 nM. For the same compound, the TGI [19] was > 100000 nM, the TGI [20] was > 100000 nM and the TGI [21] was > 100000 nM. The TGI [22] was > 100000 nM, the TGI [23] was > 100000 nM and the TGI [24] was > 52800 nM. The TGI [25] was > 100000 nM, the TGI [26] was > 100000 nM and the TGI [27] was > 100000 nM. The TGI [28] was > 100000 nM, the TGI [29] was > 100000 nM and the TGI [30] was > 100000 nM. The TGI [31] was > 100000 nM, the TGI [32] was > 100000 nM and the TGI [33] was > 100000 nM. The TGI [34] was > 100000 nM, the TGI [35] was > 100000 nM and the TGI [36] was > 100000 nM. For the same compound, the TGI [37] was > 100000 nM, the TGI [38] was > 100000 nM and the TGI [39] was > 68100 nM. The TGI [40] was > 100000 nM, the TGI [41] was > 100000 nM and the TGI [42] was > 100000 nM. The TGI [43] was > 100000 nM, the TGI [44] was > 100000 nM and the TGI [45] was > 100000 nM. The TGI [46] was > 100000 nM, the TGI [47] was > 100000 nM and the TGI [48] was > 100000 nM. The TGI [49] was > 100000 nM, the TGI [50] was > 100000 nM and the TGI [51] was > 100000 nM. For the same compound, the TGI [52] was > 100000 nM, the TGI [53] was > 100000 nM and the TGI [54] was > 100000 nM. For the same compound, the TGI [55] was > 100000 nM, the TGI [56] was > 100000 nM and the TGI [57] was > 100000 nM. For the same compound, the TGI [58] was > 100000 nM, the TGI [59] was > 100000 nM and the TGI [60] was > 100000 nM. For the same compound, the TGI [61] was > 100000 nM, the TGI [62] was > 100000 nM and the TGI [63] was > 100000 nM. The TGI [64] was > 100000 nM, the TGI [65] was > 100000 nM and the TGI [66] was > 100000 nM. For the same compound, the TGI [67] was > 100000 nM and the TGI [68] was > 100000 nM.

Compound `O=[N+]([O-])c1cccc2nc3ccccc3c(NCCO)c12` has a GI50 [1] of 0.299 nM, a TGI [1] of 2.32 nM and a GI50 [2] of 1.1 nM. It also gave a TGI [2] of 12.9 nM, a GI50 [3] of 1.2 nM and a TGI [3] of 87.8 nM. The TGI [4] was 14.2 nM, the TGI [5] was 2.05 nM and the GI50 [6] was 0.118 nM. The TGI [7] was 48.1 nM, the GI50 [8] was 0.265 nM and the TGI [8] was 2.1 nM. It also gave a TGI [9] of 4.8 nM, a GI50 [10] of 5.47 nM and a TGI [10] of 3.73 nM. It also gave a GI50 [11] of 0.0482 nM, a TGI [11] of 1.95 nM and a GI50 [12] of 4.69 nM. The GI50 [13] was 0.464 nM, the TGI [13] was 5.23 nM and 1.92 nM and the GI50 [14] was 0.705 nM. For the same compound, the GI50 [15] was 0.298 nM, the TGI [15] was 0.802 nM and the GI50 [16] was 1.18 nM. For the same compound, the TGI [16] was > 100 nM, the GI50 [17] was 1.46 nM and the TGI [17] was 3.67 nM and 3.38 nM. For the same compound, the GI50 [18] was 0.181 nM, the TGI [18] was 6.4 nM and 0.73 nM and the GI50 [19] was 0.527 nM. It also gave a TGI [19] of 1.52 nM, a TGI [20] of 4.37 nM and a GI50 [21] of 1.82 nM. The TGI [21] was 6.86 nM and 3.46 nM, the GI50 [22] was 0.113 nM and the TGI [22] was 0.471 nM. The GI50 [23] was 0.999 nM, the TGI [23] was 3.84 nM and the TGI [24] was 50.4 nM and 12 nM. For the same compound, the TGI [25] was > 100 nM, the GI50 [26] was 0.703 nM and the TGI [26] was 9.29 nM and 3.07 nM. For the same compound, the GI50 [27] was 0.594 nM, the TGI [27] was 9.35 nM and 2.74 nM and the GI50 [28] was 1.39 nM. For the same compound, the TGI [28] was 7.31 nM, the GI50 [29] was 1.22 nM and the TGI [29] was 4.61 nM and 5.48 nM. The GI50 [30] was 0.0322 nM, the GI50 [31] was 3.79 nM and the TGI [31] was > 100 nM. For the same compound, the GI50 [32] was 0.0272 nM, the GI50 [33] was 1.21 nM and the TGI [33] was 19.2 nM. It also gave a GI50 [34] of 0.0396 nM, a GI50 [35] of 0.136 nM and a TGI [35] of 0.414 nM. It also gave a GI50 [36] of 0.338 nM, a TGI [36] of 0.857 nM and a TGI [37] of 0.799 nM. The GI50 [38] was 1.34 nM, the TGI [38] was > 100 nM and the GI50 [39] was 0.952 nM. The TGI [39] was 13.7 nM, the TGI [40] was 11.9 nM and 16.9 nM and the GI50 [41] was 0.484 nM. For the same compound, the TGI [41] was 2.93 nM, the GI50 [42] was 0.336 nM and the TGI [42] was 5.76 nM and 1.73 nM. For the same compound, the GI50 [44] was 0.707 nM, the TGI [45] was 8.48 nM and the GI50 [46] was 0.4 nM. For the same compound, the TGI [46] was 5.18 nM, the TGI [47] was 2.93 nM and 26.7 nM and the TGI [48] was 5.01 nM. It also gave a GI50 [49] of 0.108 nM, a TGI [49] of 0.295 nM and a GI50 [50] of 9.34 nM. The TGI [50] was 36.7 nM, the GI50 [51] was 2.87 nM and the TGI [51] was 1.78 nM. The GI50 [52] was 1.26 nM, the GI50 [53] was 0.525 nM and the TGI [53] was 1.7 nM. The GI50 [54] was 0.0593 nM, the TGI [54] was 1.4 nM and the GI50 [55] was 0.279 nM. The TGI [55] was 1.12 nM, the GI50 [56] was 0.293 nM and the TGI [56] was 4.25 nM. The GI50 [57] was 0.647 nM, the TGI [57] was 2.14 nM and the GI50 [58] was 0.25 nM. The TGI [58] was 3.77 nM and 10.7 nM, the TGI [59] was 3.08 nM and the GI50 [60] was 0.189 nM. The TGI [60] was 4.05 nM and 2.47 nM, the GI50 [61] was 0.0714 nM and the GI50 [62] was 0.14 nM. The TGI [62] was 3.95 nM and 0.815 nM, the GI50 [63] was 3.22 nM and the TGI [63] was 9.82 nM and 19.8 nM. For the same compound, the GI50 [64] was 11.8 nM, the TGI [64] was 13.9 nM and 72.4 nM and the TGI [65] was 15.7 nM. The GI50 [66] was 0.0418 nM, the TGI [66] was 0.47 nM and the GI50 [67] was 0.154 nM. It also gave a TGI [67] of 1.46 nM and a TGI [68] of 3.57 nM.
